{
  "source": "patent US7427503B2",
  "about": "“Method for transferring material in a cell system” (Eppendorf AG, priority 2000, dated 2008)",
  "key": {"Jurkat cells [1]": {"tested_on": "Jurkat cells", "test": "Electroporation of Jurkat cells with and without trehalose in hypo-osmolar working medium", "assay_type": "cell-based, human", "conditions": "100 mOsm", "procedure": "Electroporation of Cells with and without Trehalose in a Hypo-osmolar Working Medium.\nA phosphate buffer with 1.15 mM K2HPO4/KH2PO4 buffer, pH 7.2, was used as a pulse medium. KCl at a concentration of 10 mM (α=1.5−1.6 mS/cm) was added as a conducting salt. After this, trehalose at the respective concentration was added to the pulse medium. Osmolarity was adjusted to 100 mOsm by the addition of inositol, so as to obtain a hypo-osmolar solution.\nJurkat cells that are cells of a human T-lymphocytes line were used. 40 μg/ml propidium iodide, which is a membrane-impermeable DNA dye, was added as the material to be transferred.\nPulse application took place after 10 minutes of incubation prior to pulse application, in the pulse medium at room temperature (cell density: 2-3×10^6 cells/ml). Pulse duration was 20 μs.\nElectroporation took place in an Eppendorf multiporator. After pulse application, the pores were left to reseal for 10 min at room temperature.\nElectropermeabilisation took place at the following trehalose concentrations: 0 mM and 40 mM (α,α-trehalose).\nPulsing takes place at 4° C. or at room temperature. This can be single pulsing; however, multiple pulsing involving up to 3 pulses can at times be advantageous."}, "Jurkat cells [2]": {"tested_on": "Jurkat cells", "test": "Electroporation of Jurkat cells with and without trehalose in iso-osmolar working medium", "assay_type": "cell-based, human", "conditions": "290 mOsm", "procedure": "Electroporation of Cells with and without Trehalose in an Iso-osmolar Working Medium.\nEssentially, the same experimental conditions as in Example 1 applied, except that the osmolarity of the pulse medium was adjusted to iso-osmolar conditions by adding inositol to 290 mOsm.\nAgain, α,α-trehalose was added in the following concentrations: 0 mM and 40 mM."}},
  "data": [
    {"smiles": "OC[C@H]1O[C@H](O[C@H]2O[C@H](CO)[C@@H](O)[C@H](O)[C@H]2O)[C@H](O)[C@@H](O)[C@@H]1O", "note": "[trehalose, α,α-trehalose]", "values": [
      {"measurement": "propidium iodide uptake", "setting": "Jurkat cells [1]; 40 mM trehalose vs 0 mM, 40 μg/ml propidium iodide, FIG. 1", "result": "only slightly influenced"},
      {"measurement": "pulse efficiency (product of propidium iodide uptake and survival rate)", "setting": "Jurkat cells [1]; 40 mM trehalose vs control without trehalose, increasing field strength, FIG. 2", "result": "significantly above the values of a control sample"},
      {"measurement": "survival rate", "setting": "Jurkat cells [2]; 40 mM trehalose vs 0 mM, above all at high field strength, FIG. 3", "result": "untreated cells (0 mM, outline squares) is many times less than in the case of cells treated with 40 mM trehalose"},
      {"measurement": "propidium iodide uptake", "setting": "Jurkat cells [2]; 40 mM trehalose vs 0 mM, FIG. 3", "result": "varies less markedly"},
      {"measurement": "pulse efficiency", "setting": "Jurkat cells [2]; 40 mM trehalose, increasing field strength, FIG. 4", "result": "gradual increase in the pulse efficiency"}
    ]}
  ]
}
